Measurements: paper PMC9127186, “Molecular Basis Underlying Hepatobiliary and Renal Excretion of Phenolic Acids of Salvia miltiorrhiza Roots (Danshen)” (Frontiers in Pharmacology, 2022)

Assays:
[1] = target: T1, rat Ntcp (Rattus norvegicus, UniProt P26435); test: Cellular transport assay, HEK-293 cells expressing rat Ntcp; settings: positive substrate 20 μM, 10 min; rat Ntcp
T1 sequence (P26435 1-362): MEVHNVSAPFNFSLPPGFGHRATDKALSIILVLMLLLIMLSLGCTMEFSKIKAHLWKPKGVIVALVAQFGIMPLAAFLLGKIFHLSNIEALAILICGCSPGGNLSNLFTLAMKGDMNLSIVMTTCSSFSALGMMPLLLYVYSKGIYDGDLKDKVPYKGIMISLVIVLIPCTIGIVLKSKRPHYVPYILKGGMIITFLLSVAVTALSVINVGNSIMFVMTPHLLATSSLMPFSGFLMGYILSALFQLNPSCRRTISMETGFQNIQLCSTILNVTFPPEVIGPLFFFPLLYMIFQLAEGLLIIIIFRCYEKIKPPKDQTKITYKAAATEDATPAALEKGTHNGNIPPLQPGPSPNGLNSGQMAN

[2] = target: T2, rat Bsep (Rattus norvegicus, UniProt O70127); test: Vesicular transport assay, inside-out membrane vesicles expressing rat Bsep; settings: positive substrate 20 μM, 10 min; rat Bsep
T2 sequence (O70127 1-1321): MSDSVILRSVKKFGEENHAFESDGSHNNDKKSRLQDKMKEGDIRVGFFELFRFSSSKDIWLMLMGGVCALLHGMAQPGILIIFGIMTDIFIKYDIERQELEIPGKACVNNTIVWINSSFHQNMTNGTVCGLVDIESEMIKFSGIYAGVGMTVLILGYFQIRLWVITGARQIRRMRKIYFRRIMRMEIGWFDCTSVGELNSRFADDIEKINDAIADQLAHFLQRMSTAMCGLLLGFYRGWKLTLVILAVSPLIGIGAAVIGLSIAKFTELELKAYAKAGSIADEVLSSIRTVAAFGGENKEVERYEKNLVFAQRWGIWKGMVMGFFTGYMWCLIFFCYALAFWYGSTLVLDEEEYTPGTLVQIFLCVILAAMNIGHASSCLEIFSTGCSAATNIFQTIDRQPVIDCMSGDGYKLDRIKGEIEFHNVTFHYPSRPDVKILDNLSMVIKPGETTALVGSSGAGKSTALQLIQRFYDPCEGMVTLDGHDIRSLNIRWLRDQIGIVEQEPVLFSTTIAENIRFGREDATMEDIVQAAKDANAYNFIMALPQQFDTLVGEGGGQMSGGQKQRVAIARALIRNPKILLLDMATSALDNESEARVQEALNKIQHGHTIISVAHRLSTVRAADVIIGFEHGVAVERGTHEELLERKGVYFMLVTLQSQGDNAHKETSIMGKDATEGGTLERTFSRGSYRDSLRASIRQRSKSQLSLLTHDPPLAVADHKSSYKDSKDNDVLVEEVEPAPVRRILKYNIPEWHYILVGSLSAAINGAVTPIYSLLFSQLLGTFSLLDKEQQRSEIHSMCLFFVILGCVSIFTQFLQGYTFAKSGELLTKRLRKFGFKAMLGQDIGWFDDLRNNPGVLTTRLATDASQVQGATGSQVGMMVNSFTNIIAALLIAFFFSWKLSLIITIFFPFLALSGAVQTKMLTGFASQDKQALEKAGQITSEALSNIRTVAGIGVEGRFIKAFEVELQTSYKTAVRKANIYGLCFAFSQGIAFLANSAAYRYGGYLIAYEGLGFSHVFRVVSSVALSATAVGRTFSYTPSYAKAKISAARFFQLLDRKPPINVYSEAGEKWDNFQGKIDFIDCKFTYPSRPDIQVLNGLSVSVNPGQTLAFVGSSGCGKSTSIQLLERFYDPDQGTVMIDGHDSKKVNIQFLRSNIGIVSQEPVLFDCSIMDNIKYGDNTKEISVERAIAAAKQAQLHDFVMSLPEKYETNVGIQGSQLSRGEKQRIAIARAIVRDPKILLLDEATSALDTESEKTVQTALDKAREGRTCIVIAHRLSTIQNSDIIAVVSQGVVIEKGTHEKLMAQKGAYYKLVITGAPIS
Description: (§1) Inside-out membrane vesicles (5 mg protein/mL), prepared from insect cells expressing human multidrug resistance-associated protein (MRP) 2, MRP3, MRP4, breast cancer resistance protein (BCRP), bile salt export pump (BSEP), and multidrug resistance protein (MDR) one and rat Mrp2, Mrp4, Bcrp, and Bsep, and vesicles (5 mg protein/mL; prepared from the insect cells expressing no ABC transporter; serving as negative control) were obtained from Genomembrane (Kanazawa, Japan).
(§2) The test Danshen compounds at 100 µM final concentration were separately incubated with the membrane vesicles for 10 min. Buffer C (50 mM MOPS-tris, 70 mM KCl, 7.5 mM MgCl2, pH 7.0) was used for preincubation and incubation, while buffer D (40 mM MOPS-tris, 70 mM KCl, pH 7.0) was used for vesicle washing. The transport rate (pmol/mg protein/min) of the test Danshen compound was calculated using Equation (2): Transport=(CV×VV)/T/WV (2) where C V, V V, T, and W V represent concentration of the compound in vesicular lysates supernatant (μM), volume of the lysates (μL), incubation time (10 min), and amount of vesicle protein amount per well (0.05 mg), respectively. Differential transport of the test Danshen compound between ATP-containing vesicles and AMP-containing vesicles was defined as net transport ratio (TransportATP/TransportAMP ratio). […] All the incubation samples were analyzed by liquid chromatography/mass spectrometry.

[3] = target: T3, human NTCP (Homo sapiens, UniProt Q14973); test: Cellular transport assay, HEK-293 cells expressing human NTCP; settings: positive substrate 20 μM, 10 min; human NTCP
T3 sequence (Q14973 1-349): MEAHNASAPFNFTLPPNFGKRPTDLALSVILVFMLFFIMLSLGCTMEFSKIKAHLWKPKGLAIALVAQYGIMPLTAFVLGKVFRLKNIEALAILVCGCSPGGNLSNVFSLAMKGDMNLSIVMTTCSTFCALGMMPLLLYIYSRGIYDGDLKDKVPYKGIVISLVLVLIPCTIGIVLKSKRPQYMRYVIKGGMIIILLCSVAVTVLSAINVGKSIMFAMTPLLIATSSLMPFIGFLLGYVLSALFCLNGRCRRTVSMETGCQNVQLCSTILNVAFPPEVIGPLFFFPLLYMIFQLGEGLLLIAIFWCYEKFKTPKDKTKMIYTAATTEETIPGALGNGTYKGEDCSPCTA

[4] = target: human BSEP (Homo sapiens, UniProt O95342); test: Vesicular transport assay, inside-out membrane vesicles expressing human BSEP; settings: positive substrate 20 μM, 10 min; human BSEP
human BSEP, sequence (O95342 whole entry): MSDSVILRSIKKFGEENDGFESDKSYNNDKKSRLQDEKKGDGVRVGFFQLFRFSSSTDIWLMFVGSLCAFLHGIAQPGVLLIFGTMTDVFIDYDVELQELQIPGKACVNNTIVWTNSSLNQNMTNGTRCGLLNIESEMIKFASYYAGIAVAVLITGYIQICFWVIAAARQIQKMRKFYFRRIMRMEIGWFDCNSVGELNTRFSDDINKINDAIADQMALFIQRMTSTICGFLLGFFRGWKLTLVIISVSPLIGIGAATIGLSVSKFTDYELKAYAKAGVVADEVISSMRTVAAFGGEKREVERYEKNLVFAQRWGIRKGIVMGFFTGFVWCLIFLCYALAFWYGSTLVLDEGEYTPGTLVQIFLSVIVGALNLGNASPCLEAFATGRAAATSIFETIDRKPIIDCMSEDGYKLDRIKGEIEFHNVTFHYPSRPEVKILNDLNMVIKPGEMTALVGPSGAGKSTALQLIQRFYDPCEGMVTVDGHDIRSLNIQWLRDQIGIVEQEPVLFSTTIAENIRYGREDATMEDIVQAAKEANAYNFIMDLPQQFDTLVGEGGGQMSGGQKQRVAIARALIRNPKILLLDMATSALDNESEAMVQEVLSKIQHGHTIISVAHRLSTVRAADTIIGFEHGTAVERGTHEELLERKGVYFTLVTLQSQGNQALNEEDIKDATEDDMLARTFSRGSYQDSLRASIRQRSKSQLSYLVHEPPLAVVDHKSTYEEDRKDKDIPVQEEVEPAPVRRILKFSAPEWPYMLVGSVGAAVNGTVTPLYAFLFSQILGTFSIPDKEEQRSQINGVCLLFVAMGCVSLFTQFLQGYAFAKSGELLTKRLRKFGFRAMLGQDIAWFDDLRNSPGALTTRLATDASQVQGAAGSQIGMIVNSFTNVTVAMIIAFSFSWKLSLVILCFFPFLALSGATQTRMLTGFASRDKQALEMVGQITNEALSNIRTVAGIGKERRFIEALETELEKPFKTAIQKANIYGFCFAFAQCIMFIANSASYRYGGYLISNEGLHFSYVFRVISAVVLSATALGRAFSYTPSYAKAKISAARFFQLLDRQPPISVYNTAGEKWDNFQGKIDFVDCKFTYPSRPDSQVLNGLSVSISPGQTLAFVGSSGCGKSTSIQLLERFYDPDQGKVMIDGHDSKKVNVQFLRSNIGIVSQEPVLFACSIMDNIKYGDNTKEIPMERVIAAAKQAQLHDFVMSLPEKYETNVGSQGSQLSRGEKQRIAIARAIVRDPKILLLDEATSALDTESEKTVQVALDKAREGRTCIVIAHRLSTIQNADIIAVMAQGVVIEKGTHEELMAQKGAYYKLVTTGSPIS
Description: as §1, §2

[5] = target: T4, rat Octn2 (Rattus norvegicus, UniProt O70594); test: Cellular transport assay, HEK-293 cells expressing rat Octn2; settings: positive substrate 20 μM, 10 min; rat Octn2
T4 sequence (O70594 1-557): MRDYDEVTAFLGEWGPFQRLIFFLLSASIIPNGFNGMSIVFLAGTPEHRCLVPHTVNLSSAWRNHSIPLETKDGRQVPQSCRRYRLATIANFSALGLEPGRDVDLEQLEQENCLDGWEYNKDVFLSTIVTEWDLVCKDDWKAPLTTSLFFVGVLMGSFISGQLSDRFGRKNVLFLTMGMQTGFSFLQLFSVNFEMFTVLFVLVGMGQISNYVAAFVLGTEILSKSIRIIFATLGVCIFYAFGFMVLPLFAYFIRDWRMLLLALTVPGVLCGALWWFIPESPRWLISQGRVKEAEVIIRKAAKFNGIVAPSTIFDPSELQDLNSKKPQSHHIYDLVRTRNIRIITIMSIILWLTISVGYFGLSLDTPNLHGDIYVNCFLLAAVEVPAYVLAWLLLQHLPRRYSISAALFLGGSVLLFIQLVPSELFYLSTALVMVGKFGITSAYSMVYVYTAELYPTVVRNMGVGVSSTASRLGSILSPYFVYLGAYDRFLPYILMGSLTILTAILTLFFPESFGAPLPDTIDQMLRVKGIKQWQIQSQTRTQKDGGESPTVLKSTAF

[6] = target: T5, human OCT3 (Homo sapiens, UniProt O75751); test: Cellular transport assay, HEK-293 cells expressing human OCT3; settings: positive substrate 20 μM, 10 min; human OCT3
T5 sequence (O75751 1-556): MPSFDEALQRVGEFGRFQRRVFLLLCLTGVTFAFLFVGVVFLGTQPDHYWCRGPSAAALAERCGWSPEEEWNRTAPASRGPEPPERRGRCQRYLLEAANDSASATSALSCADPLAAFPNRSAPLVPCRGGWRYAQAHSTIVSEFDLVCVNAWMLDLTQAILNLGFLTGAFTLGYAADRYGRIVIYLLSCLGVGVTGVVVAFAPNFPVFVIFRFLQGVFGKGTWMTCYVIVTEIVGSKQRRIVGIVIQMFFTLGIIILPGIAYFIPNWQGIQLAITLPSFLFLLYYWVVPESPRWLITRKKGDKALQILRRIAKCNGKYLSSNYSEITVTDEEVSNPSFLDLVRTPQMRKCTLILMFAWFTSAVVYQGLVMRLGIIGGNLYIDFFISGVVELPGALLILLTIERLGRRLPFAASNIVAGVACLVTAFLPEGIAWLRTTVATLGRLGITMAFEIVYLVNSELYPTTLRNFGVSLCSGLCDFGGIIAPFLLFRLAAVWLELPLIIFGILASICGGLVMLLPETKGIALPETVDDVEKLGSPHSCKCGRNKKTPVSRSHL

[7] = target: T6, rat Oct3 (Rattus norvegicus, UniProt O88446); test: Cellular transport assay, HEK-293 cells expressing rat Oct3; settings: positive substrate 20 μM, 10 min; rat Oct3
T6 sequence (O88446 1-551): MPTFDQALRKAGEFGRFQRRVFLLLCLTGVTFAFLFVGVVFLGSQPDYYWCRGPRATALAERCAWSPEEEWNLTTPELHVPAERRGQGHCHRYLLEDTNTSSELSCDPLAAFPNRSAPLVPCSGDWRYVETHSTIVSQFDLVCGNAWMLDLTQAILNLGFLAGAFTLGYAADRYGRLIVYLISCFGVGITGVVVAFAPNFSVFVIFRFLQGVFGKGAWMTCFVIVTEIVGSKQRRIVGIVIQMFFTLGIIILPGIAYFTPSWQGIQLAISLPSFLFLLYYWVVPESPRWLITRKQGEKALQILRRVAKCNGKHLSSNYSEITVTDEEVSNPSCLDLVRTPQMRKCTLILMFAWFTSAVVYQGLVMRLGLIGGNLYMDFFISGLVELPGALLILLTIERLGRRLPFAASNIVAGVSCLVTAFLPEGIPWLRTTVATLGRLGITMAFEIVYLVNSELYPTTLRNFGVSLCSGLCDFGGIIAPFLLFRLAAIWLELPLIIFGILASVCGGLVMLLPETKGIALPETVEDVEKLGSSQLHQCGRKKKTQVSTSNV

| SMILES | TransportTC/TransportMC ratio, positive substrate [1] | TransportATP/TransportAMP ratio, positive substrate [2] | TransportTC/TransportMC ratio, positive substrate [3] | TransportATP/TransportAMP ratio, positive substrate [4] | TransportTC/TransportMC ratio, positive substrate [5] | TransportTC/TransportMC ratio, positive substrate [6] | TransportTC/TransportMC ratio, positive substrate [7] |
| --- | --- | --- | --- | --- | --- | --- | --- |
| C[C@H](CCC(=O)NCCS(=O)(=O)O)[C@H]1CC[C@H]2[C@@H]3[C@H](O)C[C@@H]4C[C@H](O)CC[C@]4(C)[C@H]3C[C@H](O)[C@]12C [TCA, taurocholic acid, reference compound] | 134 ± 15 (TCA) | 5.14 ± 0.88 (TCA) | 144 ± 30 (TCA) | 4.03 ± 0.89 (TCA) | – | – | – |
| CC[N+](CC)(CC)CC [TEA, tetraethylammonium, reference compound] | – | – | – | – | 9.85 ± 0.74 (TEA) | 4.45 ± 0.27 (TEA) | 3.90 ± 0.88 (TEA) |
